According to PMC8635623, “A click chemistry approach to pleuromutilin derivatives, evaluation of anti-MRSA activity and elucidation of binding mode by surface plasmon resonance and molecular docking” (Journal of Enzyme Inhibition and Medicinal Chemistry, 2021):
≈ marks a conversion by molar mass, not a printed value. Like-named read-outs stand apart in the source and are kept apart here.

Columns and labels:
50S ribosome = test: SPR binding studies; design: species or system S. aureus; conditions: for Ka (association rate constant) / Kd (dissociation rate constant): PBST pH 7.4, compound immobilised, 50S ribosome 200-3200 nM
Procedure: In order to gain some insight into the binding mode of the potent inhibitors, SPR experiments were performed. […] The response unit (RU) of surface resonance was compared to determine the different binding affinities between each compound and the 50S ribosome. The association rate constants (Ka) and dissociation rate constant (Kd) represent the rate of association and dissociation in the binding reaction, respectively. The equilibrium dissociation constant (KD) indicated the degree of dissociation of compounds and the 50S ribosome in the equilibrium state. Their binding curves during the experiment were shown in Figure 3, as well as the concentration gradient curves were shown in Figure SI 27–34.
SPR biosensing experiments were performed at 4 °C using the bScreen LB 991 Label-free Microarray System (Berthold Technologies, Germany) and the photo-cross-linker sensor chip. The BIODOT™ AD-1520 Array Printer (BIODOT Inc., USA) was used for printing samples and control on the chip surface. A UV Spectroirradiator 1020 (Amersham Life Science, USA) was used for the photo-cross-linking reaction quickly after the array print.
As described in the reference[32–34] with minor modifications, the ribosome of S. aureus were extracted and purified to obtain 50S ribosome. MRSA (ATCC 43300) was incubated overnight at 37 °C. The bacteria solution was inoculated into a new culture solution, and cells were collected at an OD600 = 1.5. The bacterial culture was centrifuged 3 times at 3,500 rpm using a TX-400 rotor at 4 °C for 30 min, and then the supernatant was discarded. Cells were washed twice with 10 mM Tris-HCl (pH = 7.5), and suspend the precipitate with buffer A (20 mM HEPES-HCl pH = 7.5, 100 mM NH4Cl, 21 mM Mg(OAc)2, 1 mM EDTA, 1 mM DTT). Cells were lysed by repeated (>3×) snap-freezing and thawing, then ultrasonic disintegration was performed. To remove cell debris, the crushed product was centrifuged at 20,000 rpm for 90 min at 4 °C.The lysate layered on 15 ml of a sucrose cushion (10 mM HEPES-HCl pH = 7.5, 500 mM KCl, 25 mM Mg(OAc)2, 1.1 M sucrose, 0.5 mM EDTA, 1 mM DTT) and centrifuged in the ultracentrifuge(Optima^TM TL 100) at 45,000 rpm using a type70Ti rotor at 4 °C for 15 h to obtain ribosomal particles. Pellet was resuspended in 3 ml of buffer E (10 mM HEPES-HCl pH = 7.5, 100 mM KCl, 1 mM Mg(OAc)2, 0.5 mM EDTA, 1 mM DTT), then layered on 9 ml of 7–30% sucrose gradient and ultracentrifuged at 17,100 rpm using a typeSW40Ti rotor at 4 °C for 15 h. The gradient was analysed on the AKTA explorer system. The fractions corresponding to 50S ribosome were collected and PEG 20000 was added to a final concentration of 4.5% w/v. Ribosomes were pelleted by centrifugation at 20,000 rpm for 12 min, the pellet was gently dissolved in 200 µL of storage buffer (10 mM HEPES-HCl pH = 7.5, 15 mM KCl, 60 mM NH4Cl, 10 mM Mg(OAc)2, 1 mM DTT) and then flash-frozen for storage at −80 °C.
Dilute these compounds to a concentration of 10 mM with DMSO as the stationary phase printing working solution. After that, the printing working solution was printed on the sensor chip by the array printer, and each sample was printed four times repeatedly. Four groups of positive control dots (12 rapamycin dots, 3 in each corner) were printed on the four corners of the sensor chip respectively. The sample dots were dried in vacuum, and the sensor chip was quickly transferred to the UV spectroirradiator for a photo-cross-linking reaction. Subsequently, the sensor chip was washed with DMF, methanol, and water for 15 min in turn, followed by blowing dry under nitrogen, and then assembled with Flowcell Cover.
The binding studies were performed with PBST running buffer (pH = 7.4, 0.1% Tween 20) at a constant flow rate of 0.5 µL/s in instrument. 50S Ribosome was diluted separately with PBST running buffer to 200 nM, 400 nM, 800 nM, 1600 nM and 3200 nM and injected consecutively for 600 s at associating stage, followed by running buffer for 360 s at each dissociating stage. […]

MRSA ATCC 43300 [1] = test: Constant concentration time-kill curves; type: cell-based, methicillin-resistant S. aureus; conditions: for time-kill kinetics result: 8 × MIC, cultured for 24 h; for concentration giving a bactericidal effect: time-kill, MRSA
Procedure: The time-kill kinetic approach was used to investigate the anti-MRSA activity of compounds 50, 62 and 64. The experimental results were presented in graphic form in Figure 2. Compared with growth control, compounds 50 and 62 inhibited the reproduction of bacteria to a certain extent.
The time-kill curve determination is an in vitro bactericidal kinetics model, which is used to study the sustained killing effect of bacteria within 24 h at a certain drug concentration. The bactericidal activity of compounds 50, 62 and 64 was determined by the time-kill curve as reported in our previous work[18]^,[22]. MRSA grown in MH broth were diluted to approximately 1 × 10^6 CFU/mL. […] 100 µL of samples were collected from the subculture inoculums before culture (0 h) and 3 h, 6 h, 9 h and 24 h after culture, and serially diluted 10-flod with sterile saline. The dilution of each gradient (25 µL) was uniformly suspended on the MH agar plates. The total bacterial CFU/mL on the plates were counted to calculate the bacterial colonies after up to 20 h of incubation at 37 °C. The results are represented by Mean ± SD, with the log10 CFU/mL of bacteria counts as the ordinate and time as the abscissa, the time-kill curves of different concentrations of compounds against MRSA were established respectively.

MRSA ATCC 43300 [2] = test: MIC/MBC by broth micro dilution; type: cell-based, methicillin-resistant S. aureus; conditions: Staphylococcus aureus; for MIC: 37 °C, 24 h, read-out: MIC; for MBC: lowest concentration reducing viable counts by 99.9%
Procedure: (§1) All the synthesised 1,2,3-triazole linked pleuromutilin analogues were screened for in vitro antibacterial activities against methicillin-resistant S. aureus (ATCC 43300), S. aureus (ATCC 29213), and two clinical strains of S. aureus (AD3 and 144, isolated from Guangdong Province, China). The MICs and MBCs of the synthesised pleuromutilin derivatives along with pleuromutilin and tiamulin used as the reference antibacterial drugs, were determined by the broth micro dilution methods according to the Clinical and Laboratory Standards Institute (CLSI)[18].
(§2) The MIC of these novel pleuromutilin derivatives against methicillin-resistant S. aureus (ATCC 43300), S. aureus (ATCC 29213), S. aureus (AD3) and S. aureus (144) were determined by using pleuromutilin and tiamulin as positive control. MIC values were determined by the broth micro dilution methods in accordance with the Clinical and Laboratory Standards Institute (2012). Stock solutions of these compounds were dissolved in methanol to make a stock solution with a concentration of 1280 µg/mL. The working solutions (640 µg/mL) were obtained by diluting stock solutions in sterile Mueller-Hinton (MH) broth. The bacterial solution and solutions of these compounds with a final concentration of 0.016–32 µg/mL were distributed into 96-well plates, with a total volume of 200 µL. Three parallel experiments for each compound concentration. The plates were incubated at 37 °C for 24 h.
(§3) MBC values were determined according to CLSI (2003) and previously report with slightly modification[18]^,[28]^,[31]. After obtaining the MIC results, the 96-well plates were incubated at 37 °C for 24 h. 100 µL of the bacterial solution from the wells with no visible growth was inoculated on MH agar plates. The MH agar plates were incubated at 37 °C for colony count. The MBC was determined as the lowest concentration of compound, which reduces the viable counts for 99.9%.

S. aureus AD3 = test: MIC/MBC by broth micro dilution; type: cell-based; conditions: Staphylococcus aureus, S. aureus AD3 (clinical strain); for MIC: 37 °C, 24 h; for MBC: lowest concentration reducing viable counts by 99.9%
Procedure: as §1, §2, §3

S. aureus 144 = test: MIC/MBC by broth micro dilution; type: cell-based; conditions: Staphylococcus aureus, S. aureus 144 (clinical strain); for MIC: 37 °C, 24 h; for MBC: lowest concentration reducing viable counts by 99.9%
Procedure: as §1, §2, §3

S. aureus ATCC 29213 = test: MIC/MBC by broth micro dilution; type: cell-based; conditions: Staphylococcus aureus; for MIC: ATCC29213, 37 °C, 24 h; for MBC: ATCC29213, lowest concentration reducing viable counts by 99.9%
Procedure: as §1, §2, §3

[3] = 4 °C, PBST pH 7.4, KD = Kd/Ka, read-out: KD (equilibrium dissociation constant)

Compound	Kd (50S ribosome; [3]) [µM]	Ka (association rate constant) (50S ribosome; 4 °C) [M⁻¹ s⁻¹]	Kd (dissociation rate constant) (50S ribosome; 4 °C) [s⁻¹]	time-kill kinetics result (MRSA ATCC 43300 [1])	concentration giving a bactericidal effect (MRSA ATCC 43300 [1])	MIC (MRSA ATCC 43300 [2]) [µg/mL]	MBC (MRSA ATCC 43300 [2]) [µg/mL]	MIC (S. aureus AD3) [µg/mL]	MBC (S. aureus AD3) [µg/mL]	MIC (S. aureus 144) [µg/mL]	MBC (S. aureus 144) [µg/mL]	MIC (S. aureus ATCC 29213) [µg/mL]	MBC (S. aureus ATCC 29213) [µg/mL]	Kd (50S ribosome; read-out: interaction intensity level for 50S ribosome (KD class)) [µM]
C=C[C@]1(C)C[C@@H](OC(=O)Cn2cc(CN3CCN(c4ccccc4C)CC3)nn2)[C@]2(C)[C@H](C)CC[C@]3(CCC(=O)[C@H]32)[C@@H](C)[C@@H]1O [Compound 50, 22-(2-(4-(4-(o-Tolyl)-piperazin-1-yl)-methyl)-1H-1,2,3-triazol-1-yl)-22-deoxy pleuromutilin]	0.0232	170	3.93e-06	relatively anti-MRSA bacteriostatic kinetics	higher than 4 × MIC	1 (≈ 1.62 µM)	2 (≈ 3.24 µM)	2 (≈ 3.24 µM)	4 (≈ 6.47 µM)	4 (≈ 6.47 µM)	4 (≈ 6.47 µM)	1 (≈ 1.62 µM)	2 (≈ 3.24 µM)	
C=C[C@]1(C)C[C@@H](OC(=O)Cn2cc(CN3CCN(c4cccc(C)c4)CC3)nn2)[C@]2(C)[C@H](C)CC[C@]3(CCC(=O)[C@H]32)[C@@H](C)[C@@H]1O [Compound 51, 22-(2-(4-(4-(m-Tolyl)-piperazin-1-yl)-methyl)-1H-1,2,3-triazol-1-yl)-22-deoxy pleuromutilin]	8.66	3800	0.0329			1 (≈ 1.62 µM)	2 (≈ 3.24 µM)	2 (≈ 3.24 µM)	4 (≈ 6.47 µM)	4 (≈ 6.47 µM)	8 (≈ 12.9 µM)	2 (≈ 3.24 µM)	4 (≈ 6.47 µM)	
C=C[C@]1(C)C[C@@H](OC(=O)Cn2cc(CN3CCN(c4ccccc4F)CC3)nn2)[C@]2(C)[C@H](C)CC[C@]3(CCC(=O)[C@H]32)[C@@H](C)[C@@H]1O [Compound 53, 22-(2-(4-(4-(2-Fluorophenyl)-piperazin-1-yl)-methyl)-1H-1,2,3-triazol-1-yl)-22-deoxy pleuromutilin]	51		0.00403			2 (≈ 3.22 µM)	4 (≈ 6.43 µM)	4 (≈ 6.43 µM)	8 (≈ 12.9 µM)	8 (≈ 12.9 µM)	8 (≈ 12.9 µM)	4 (≈ 6.43 µM)	8 (≈ 12.9 µM)	
C=C[C@]1(C)C[C@@H](OC(=O)Cn2cc(CN3CCN(c4ccccc4[N+](=O)[O-])CC3)nn2)[C@]2(C)[C@H](C)CC[C@]3(CCC(=O)[C@H]32)[C@@H](C)[C@@H]1O [Compound 62, 22-(2-(4-(4-(2-Nitrophenyl)-piperazin-1-yl)-methyl)-1H-1,2,3-triazol-1-yl)-22-deoxy pleuromutilin]	17.7	734	0.013	relatively anti-MRSA bacteriostatic kinetics	higher than 4 × MIC	1 (≈ 1.54 µM)	2 (≈ 3.08 µM)	1 (≈ 1.54 µM)	4 (≈ 6.17 µM)	2 (≈ 3.08 µM)	4 (≈ 6.17 µM)	2 (≈ 3.08 µM)	2 (≈ 3.08 µM)	10 to 1000
C=C[C@]1(C)C[C@@H](OC(=O)Cn2cc(CN3CCN(c4cccc([N+](=O)[O-])c4)CC3)nn2)[C@]2(C)[C@H](C)CC[C@]3(CCC(=O)[C@H]32)[C@@H](C)[C@@H]1O [Compound 63, 22-(2-(4-(4-(3-Nitrophenyl)-piperazin-1-yl)-methyl)-1H-1,2,3-triazol-1-yl)-22-deoxy pleuromutilin]	3.48	992	0.00345			2 (≈ 3.08 µM)	2 (≈ 3.08 µM)	2 (≈ 3.08 µM)	4 (≈ 6.17 µM)	4 (≈ 6.17 µM)	16 (≈ 24.7 µM)	4 (≈ 6.17 µM)	8 (≈ 12.3 µM)	
C=C[C@]1(C)C[C@@H](OC(=O)CSCCN(CC)CC)[C@]2(C)[C@H](C)CC[C@]3(CCC(=O)[C@H]32)[C@@H](C)[C@@H]1O [Tiamulin, tiamulin, reference compound]	0.0363	122	4.44e-06			0.5 (≈ 1.01 µM)	1 (≈ 2.03 µM)	1 (≈ 2.03 µM)	2 (≈ 4.05 µM)	1 (≈ 2.03 µM)	2 (≈ 4.05 µM)	0.5 (≈ 1.01 µM)	1 (≈ 2.03 µM)	
